Read-outs that look alike come from different tables or passages of the source.
Columns and labels:
[1] = Text: Written informed consent was obtained from all the participants included in the study. The patient enrolment period for the screening study started on February 1, 2009 and ended on July 31, 2012.
We obtained data on compliance and the grade of hot flush as defined by the Common Terminology Criteria for Adverse Events v3.0.
The p value was not calculated if there were no events.

[2] = weighting of plasma concentration; cited from earlier work
[3] = TOR versus TAM, seven randomized-controlled trials; cited from earlier work
[4] = Plasma concentrations of TAM, TOR and their metabolites by LC–MS/MS (screening study); details: TOR 120 mg for up to 6 months

CN(C)CCOc1ccc(/C(=C(/CCCl)c2ccccc2)c2ccccc2)cc1 [TOR, toremifene]
Hyperglycemia All grade, % of patients ([1]; TOR 120 mg (1)): 0 (0) % | Hyperglycemia All grade, patients ([1]; TOR 120 mg (1)): 0 (0) | Hyperglycemia ≧ G2, % of patients ([1]; TOR 120 mg (1)): 0 (0) % | Hyperglycemia ≧ G2, patients ([1]; TOR 120 mg (1)): 0 (0) | LDH elevation All grade, % of patients ([1]; TOR 120 mg (1)): 7.1% | LDH elevation All grade, patients ([1]; TOR 120 mg (1)): 1 | LDH elevation ≧ G2, % of patients ([1]; TOR 120 mg (1)): 7.1% | LDH elevation ≧ G2, patients ([1]; TOR 120 mg (1)): 1 | LDL elevation All grade, % of patients ([1]; TOR 120 mg (1)): 14.3% | LDL elevation All grade, patients ([1]; TOR 120 mg (1)): 1 | LDL elevation ≧ G2, % of patients ([1]; TOR 120 mg (1)): 0 (0) % | LDL elevation ≧ G2, patients ([1]; TOR 120 mg (1)): 0 (0) | Low PLT All grade, % of patients ([1]; TOR 120 mg (1)): 0 (0) % | Low PLT All grade, patients ([1]; TOR 120 mg (1)): 0 (0) | Low PLT ≧ G2, % of patients ([1]; TOR 120 mg (1)): 0 (0) % | Low PLT ≧ G2, patients ([1]; TOR 120 mg (1)): 0 (0) | Low WBC All grade, % of patients ([1]; TOR 120 mg (1)): 11.1% | Low WBC All grade, patients ([1]; TOR 120 mg (1)): 1 | Low WBC ≧ G2, % of patients ([1]; TOR 120 mg (1)): 11.1% | Low WBC ≧ G2, patients ([1]; TOR 120 mg (1)): 1 | T. Bil elevation All grade, % of patients ([1]; TOR 120 mg (1)): 0 (0) % | T. Bil elevation All grade, patients ([1]; TOR 120 mg (1)): 0 (0) | T. Bil elevation ≧ G2, % of patients ([1]; TOR 120 mg (1)): 0 (0) % | T. Bil elevation ≧ G2, patients ([1]; TOR 120 mg (1)): 0 (0) | TG elevation All grade, % of patients ([1]; TOR 120 mg (1)): 0 (0) % | TG elevation All grade, patients ([1]; TOR 120 mg (1)): 0 (0) | TG elevation ≧ G2, % of patients ([1]; TOR 120 mg (1)): 0 (0) % | TG elevation ≧ G2, patients ([1]; TOR 120 mg (1)): 0 (0) | Weight, max ([1]; TOR 120 mg (1)): 73.5 kg | Weight, mean ([1]; TOR 120 mg (1)): 53.4 kg | Weight, median ([1]; TOR 120 mg (1)): 51.0 kg | Weight, min ([1]; TOR 120 mg (1)): 45.0 kg | Cre elevation All grade, % of patients ([1]; TOR 120 mg (2)): 16.7% | Cre elevation All grade, patients ([1]; TOR 120 mg (2)): 2 | Cre elevation ≧ G2, % of patients ([1]; TOR 120 mg (2)): 0 (0) % | Cre elevation ≧ G2, patients ([1]; TOR 120 mg (2)): 0 (0) | GOT elevation All grade, % of patients ([1]; TOR 120 mg (2)): 8.3% | GOT elevation All grade, patients ([1]; TOR 120 mg (2)): 1 | GOT elevation ≧ G2, % of patients ([1]; TOR 120 mg (2)): 0 (0) % | GOT elevation ≧ G2, patients ([1]; TOR 120 mg (2)): 0 (0) | GPT elevation All grade, % of patients ([1]; TOR 120 mg (2)): 8.3% | GPT elevation All grade, patients ([1]; TOR 120 mg (2)): 1 | GPT elevation ≧ G2, % of patients ([1]; TOR 120 mg (2)): 0 (0) % | GPT elevation ≧ G2, patients ([1]; TOR 120 mg (2)): 0 (0) | Hot flush G0, % of patients ([1]; TOR 120 mg (2)): 75.0% | Hot flush G0, patients ([1]; TOR 120 mg (2)): 9 | Hot flush G1, % of patients ([1]; TOR 120 mg (2)): 8.3% | Hot flush G1, patients ([1]; TOR 120 mg (2)): 1 | Hot flush G2, % of patients ([1]; TOR 120 mg (2)): 16.7% | Hot flush G2, patients ([1]; TOR 120 mg (2)): 2 | Hyperglycemia All grade, % of patients ([1]; TOR 120 mg (2)): 7.1% | Hyperglycemia All grade, patients ([1]; TOR 120 mg (2)): 1 | Hyperglycemia ≧ G2, % of patients ([1]; TOR 120 mg (2)): 7.1% | Hyperglycemia ≧ G2, patients ([1]; TOR 120 mg (2)): 1 | LDH elevation All grade, % of patients ([1]; TOR 120 mg (2)): 0 (0) % | LDH elevation All grade, patients ([1]; TOR 120 mg (2)): 0 (0) | LDH elevation ≧ G2, % of patients ([1]; TOR 120 mg (2)): 0 (0) % | LDH elevation ≧ G2, patients ([1]; TOR 120 mg (2)): 0 (0) | LDL elevation All grade, % of patients ([1]; TOR 120 mg (2)): 10.0% | LDL elevation All grade, patients ([1]; TOR 120 mg (2)): 1 | LDL elevation ≧ G2, % of patients ([1]; TOR 120 mg (2)): 0 (0) % | LDL elevation ≧ G2, patients ([1]; TOR 120 mg (2)): 0 (0) | Low PLT All grade, % of patients ([1]; TOR 120 mg (2)): 0 (0) % | Low PLT All grade, patients ([1]; TOR 120 mg (2)): 0 (0) | Low PLT ≧ G2, % of patients ([1]; TOR 120 mg (2)): 0 (0) % | Low PLT ≧ G2, patients ([1]; TOR 120 mg (2)): 0 (0) | Low WBC All grade, % of patients ([1]; TOR 120 mg (2)): 8.3% | Low WBC All grade, patients ([1]; TOR 120 mg (2)): 1 | Low WBC ≧ G2, % of patients ([1]; TOR 120 mg (2)): 8.3% | Low WBC ≧ G2, patients ([1]; TOR 120 mg (2)): 1 | T. Bil elevation All grade, % of patients ([1]; TOR 120 mg (2)): 0 (0) % | T. Bil elevation All grade, patients ([1]; TOR 120 mg (2)): 0 (0) | T. Bil elevation ≧ G2, % of patients ([1]; TOR 120 mg (2)): 0 (0) % | T. Bil elevation ≧ G2, patients ([1]; TOR 120 mg (2)): 0 (0) | TG elevation All grade, % of patients ([1]; TOR 120 mg (2)): 0 (0) % | TG elevation All grade, patients ([1]; TOR 120 mg (2)): 0 (0) | TG elevation ≧ G2, % of patients ([1]; TOR 120 mg (2)): 0 (0) % | TG elevation ≧ G2, patients ([1]; TOR 120 mg (2)): 0 (0) | Weight, max ([1]; TOR 120 mg (2)): 73.0 kg | Weight, mean ([1]; TOR 120 mg (2)): 53.6 kg | Weight, median ([1]; TOR 120 mg (2)): 51.1 kg | Weight, min ([1]; TOR 120 mg (2)): 46.0 kg | Body weight during dose escalation ([1]; TOR 40 to 120 mg): remained stable | Hot flushes and GOT/GPT elevation with an increase in the dose ([1]; TOR 40 to 120 mg): only a few patients developed hot flushes and GOT/GPT elevation | In vitro activity factor in the total activity of TOR (TOR = 1.0) [2]: 1.0 | Efficacy in patients with advanced breast cancer [3]: equally effective | Concentration on continuing the same dose [4]: remained constant

Reference: article PMC6694038, “Pharmacogenomic–pharmacokinetic study of selective estrogen-receptor modulators with intra-patient dose escalation in breast cancer” (Breast Cancer (Tokyo, Japan), 2019)
